# Paper PMC9206686, “Expression, characterization, and activity optimization of a novel cellulase from the thermophilic bacteria Cohnella sp. A01” (Scientific Reports, 2022)
# Target: T1, CelC307 (Cohnella sp. A01, UniProt A0A6C0R5L1)
# T1 construct: Ni-NTA or heat-shock purified; GH5 domain predicted 77-362; primers imply N-terminus MGDLERL, C-terminus HAGAR before tag
# T1 sequence (A0A6C0R5L1 1-491): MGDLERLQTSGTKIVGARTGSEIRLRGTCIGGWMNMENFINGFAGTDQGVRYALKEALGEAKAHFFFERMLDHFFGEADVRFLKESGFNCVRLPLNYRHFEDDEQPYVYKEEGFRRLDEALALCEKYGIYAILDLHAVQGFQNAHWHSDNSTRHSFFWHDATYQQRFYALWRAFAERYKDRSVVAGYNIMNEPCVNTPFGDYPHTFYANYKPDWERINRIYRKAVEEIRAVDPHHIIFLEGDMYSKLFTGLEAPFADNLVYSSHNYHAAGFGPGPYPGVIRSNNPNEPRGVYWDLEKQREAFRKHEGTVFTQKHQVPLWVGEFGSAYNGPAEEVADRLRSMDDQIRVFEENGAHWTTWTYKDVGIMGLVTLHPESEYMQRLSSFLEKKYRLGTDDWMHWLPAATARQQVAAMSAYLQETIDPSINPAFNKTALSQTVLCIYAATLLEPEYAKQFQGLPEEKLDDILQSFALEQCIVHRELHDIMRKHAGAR
# Test: DNS reducing-sugar assay, Lineweaver-Burk
# Format: biochemical
# Conditions: inhibitor, CMC substrate; […] inhibitor, pH […] °C
Structure (SMILES),inhibition mode (mixed-type),inhibition mode (non-competitive)
OCC1(O)OC[C@@H](O)[C@@H](O)[C@@H]1O (stereo partly drawn) [fructose],the fructose and lactose exhibited the mixed-type inhibition mode,
OC[C@H]1O[C@@H](O[C@H]2[C@H](O)[C@@H](O)C(O)O[C@@H]2CO)[C@H](O)[C@@H](O)[C@H]1O (stereo partly drawn) [lactose],the fructose and lactose exhibited the mixed-type inhibition mode,
OC[C@H]1O[C@H](O[C@H]2[C@H](O)[C@@H](O)C(O)O[C@@H]2CO)[C@H](O)[C@@H](O)[C@@H]1O (stereo partly drawn) [maltose],,the inhibition mode of maltose was non-competitive because the Vmax was reduced
